Columns and labels:
[1] = tested on: KG-1 (expressing FGFR1OP2-FGFR1 fusion protein); assay: In vitro growth inhibition (GI50), KG-1; format: cell-based; settings: Homo sapiens; Cell lines of leukemia; read-out: GI 50 KG-1 FGFR1OP 2-FGFR1
[2] = tested on: U937 (FLT3 wild-type); assay: In vitro growth inhibition (GI50), U937; format: cell-based; settings: Homo sapiens, U-937; Cell lines of leukemia; read-out: GI 50 U937 FLT 3(WT)
[3] = tested on: OCI-AML3 (NPMc+ mutant type); assay: In vitro growth inhibition (GI50), OCI-AML3; format: cell-based; settings: Homo sapiens, OCI-AML-3; Cell lines of leukemia; read-out: GI 50 OCI- AML3 NPMc+
[4] = tested on: RAMOS (positive expression of Brutons tyrosine protein kinase); assay: In vitro growth inhibition (GI50), RAMOS; format: cell-based; settings: Homo sapiens, Cell lines of leukemia, read-out: GI 50 Ramos BTK
[5] = tested on: HL-60 (FLT3 wild type); assay: In vitro growth inhibition (GI50), HL-60; format: cell-based; settings: Homo sapiens, Cell lines of leukemia, read-out: GI 50 HL60 FLT3 (WT)
Outline: (§1)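 Cells in RPMI1640 with 10% FBS, seeded at 5–10×10^4 cells/mL, exposed next day to compound at 5,000 nM down to 0.01 nM (2- or 10-fold dilutions, ≤1% solvent) for 3–5 days at 37 °C. CCK8 absorbance at 450 nm, growth rate relative to pre-treatment and solvent controls, GI50 from concentration–growth curve.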

[6] = tested on: Kasumi-1 (c-Kit N822K mutant type); assay: In vitro growth inhibition (GI50), Kasumi-1; format: cell-based; settings: Homo sapiens, Cell lines of leukemia, read-out: GI 50 Kasumi-1 Kit (N822K)
Outline: as §1

[7] = tested on: RS4; 11 (FLT3 wild type); assay: In vitro growth inhibition (GI50), RS4; 11; format: cell-based, human; settings: Homo sapiens, RS4-11; Cell lines of leukemia; read-out: GI 50 RS4: 11 FLT3 (WT)
[8] = tested on: K562 (FLT3 negative expression, positive expression of BCR-ABL fusion protein); assay: In vitro growth inhibition (GI50), K562; format: cell-based; settings: Homo sapiens, Cell lines of leukemia, read-out: GI 50 K562 BCR-ABL
[9] = tested on: MV4-11 (FLT3 ITD+/+ mutant type); assay: In vitro growth inhibition (GI50), MV4-11; format: cell-based, human; settings: Homo sapiens, MV4-11; Cell lines of leukemia; read-out: GI 50 MV4-11 FLT3 (ITD +/+)
[10] = tested on: MOLM-13 (FLT3 ITD+/− mutant type); assay: In vitro growth inhibition (GI50), MOLM-13; format: cell-based, human; settings: Homo sapiens, MOLM-13; Cell lines of leukemia; read-out: GI 50 MOLM-13 FLT3 (ITD+/−)

SMILES	GI50 [1] [nM]	GI50 [2] [nM]	GI50 [3] [nM]	GI50 [4] [nM]	GI50 [5] [nM]	GI50 [6] [nM]	GI50 [7] [nM]	GI50 [8] [nM]	GI50 [9] [nM]	GI50 [10] [nM]
CC(C)(C)c1cc(NC(=O)Nc2ccc(-n3cnc4cc(Br)cnc43)cc2)no1 [Compound 51, 1-[4-(6-bromo-imidazo[4,5-b]pyridin-3-yl)-phenyl]-3-(5-tert-butyl-isoxazol-3-yl)-urea]	> 1000	> 1000	> 1000	> 1000	> 1000	> 1000	> 1000	> 1000	1 to 10	1 to 10
CC(C)(C)c1cc(NC(=O)Nc2ccc(-n3cnc4cc(C(F)(F)F)cnc43)cc2)no1 [Compound 52, 1-(5-tert-butyl-isoxazol-3-yl)-3-[4-(6-trifluoromethyl-imidazo[4,5-b]pyridin-3-yl)-phenyl]-urea]	> 1000	> 1000	> 1000	> 1000	> 1000	> 1000	> 1000	> 1000	1 to 10	1 to 10
Cc1ccc2ncn(-c3ccc(NC(=O)Nc4cc(C(C)(C)C)on4)cc3)c2n1 [Compound 54, 1-(5-tert-butyl-isoxazol-3-yl)-3-[4-(5-methylimidazo[4,5-b]pyridine-3-yl)-phenyl]-urea]	> 1000	> 1000	> 1000	> 1000	> 1000	> 1000	> 1000	> 1000	1 to 10	1 to 10
Cc1ccnc2c1ncn2-c1ccc(NC(=O)Nc2cc(C(C)(C)C)on2)cc1 [Compound 55, 1-(5-tert-butyl-isoxazol-3-yl)-3-[4-(7-methylimidazo[4,5-b]pyridin-3-yl)-phenyl]-urea]	> 1000	> 1000	100 to 1000	> 1000	> 1000	> 1000	> 1000	> 1000	10 to 100	10 to 100
CC(C)(C)c1cc(NC(=O)Nc2ccc(-n3cnc4ncccc43)cc2)no1 [Compound 56, 1-(5-tert-butyl-isoxazol-3-yl)-3-(4-imidazo[4,5-b]pyridin-1-yl-phenyl)-urea]	100 to 1000	> 1000	> 1000	> 1000	> 1000	> 1000	> 1000	> 1000	10 to 100	10 to 100
COc1ncnc2ncn(-c3ccc(NC(=O)Nc4cc(C(C)(C)C)on4)cc3)c12 [Compound 57, 1-(5-tert-butyl-isoxazol-3-yl)-3-[4-(6-methoxyl-purin-7-yl)-phenyl]-urea]	> 1000	> 1000	> 1000	> 1000	> 1000	> 1000	> 1000	> 1000	10 to 100	10 to 100
COc1ncnc2c1ncn2-c1ccc(NC(=O)Nc2cc(C(C)(C)C)on2)cc1 [Compound 58, 1-(5-tert-butyl-isoxazol-3-yl)-3-[4-(6-methoxylpurin-9-yl)-phenyl]-urea]	> 1000	> 1000	> 1000	> 1000	> 1000	> 1000	> 1000	> 1000	10 to 100	10 to 100
CN(C)c1ncnc2ncn(-c3ccc(NC(=O)Nc4cc(C(C)(C)C)on4)cc3)c12 [Compound 59, 1-(5-tert-butyl-isoxazol-3-yl)-3-[4-(6-dimethylamino-purin-7-yl)-phenyl]-urea]	100 to 1000	> 1000	> 1000	> 1000	> 1000	> 1000	100 to 1000	100 to 1000	1 to 10	1 to 10
O=C(Nc1ccc(-n2cnc3ccccc32)cc1)Nc1nccs1 [Compound 60, 1-(4-benzimidazol-1-yl-phenyl)-3-thiazol-2-yl-urea]	100 to 1000	> 1000	> 1000	> 1000	> 1000	> 1000	> 1000	> 1000	> 1000	> 1000
Cc1csc(NC(=O)Nc2ccc(-n3cnc4ccccc43)cc2)n1 [Compound 61, 1-(4-benzimidazol-1-yl-phenyl)-3-(4-methyl-thiazol-2-yl)-urea]	> 1000	> 1000	> 1000	> 1000	> 1000	> 1000	> 1000	> 1000	> 1000	> 1000
O=C(Nc1ccc(-n2cnc3ccccc32)cc1)Nc1nncs1 [Compound 62, 1-(4-benzimidazol-1-yl-phenyl)-3-[1,3,4]thiadiazol-2-yl-urea]	> 1000	> 1000	> 1000	> 1000	> 1000	> 1000	> 1000	> 1000	> 1000	> 1000
CC(C)(C)c1nnc(NC(=O)Nc2ccc(-n3cnc4ccccc43)cc2)s1 [Compound 63, 1-(4-benzimidazol-1-yl-phenyl)-3-(5-tert-butyl-[1,3,4]thiadiazole-2-yl)-urea]	> 1000	> 1000	> 1000	> 1000	> 1000	> 1000	> 1000	> 1000	1 to 10	1 to 10
Cc1cc(NC(=O)Nc2ccc(-n3cnc4ccccc43)cc2)n[nH]1 [Compound 64, 1-(4-benzimidazol-1-yl-phenyl)-3-(5-methyl-1H-pyrazol-3-yl)-urea]	100 to 1000	> 1000	> 1000	> 1000	> 1000	> 1000	> 1000	> 1000	100 to 1000	100 to 1000
O=C(Nc1ccc(-n2cnc3ccccc32)cc1)Nc1cc(-c2ccccc2)[nH]n1 [Compound 65, 1-(4-benzimidazol-1-yl-phenyl)-3-(5-phenyl-1H-pyrazol-3-yl)-urea]	> 1000	> 1000	> 1000	> 1000	> 1000	> 1000	> 1000	> 1000	100 to 1000	100 to 1000
O=C(Nc1ccc(-n2cnc3ccccc32)cc1)Nc1cc(C2CC2)n[nH]1 [Compound 66, 1-(4-benzimidazol-1-yl-phenyl)-3-(5-cyclopropyl-2H-pyrazol-3-yl)-urea]	> 1000	> 1000	> 1000	> 1000	> 1000	> 1000	> 1000	> 1000	10 to 100	10 to 100
O=C(Nc1ccc(-n2cnc3ccccc32)cc1)Nc1cc(C(F)(F)F)n[nH]1 [Compound 67, 1-(4-benzimidazol-1-yl-phenyl)-3-(5-trifluoromethyl-2H-pyrazole-3-yl)-urea]	100 to 1000	100 to 1000	> 1000	100 to 1000	100 to 1000	100 to 1000	100 to 1000	100 to 1000	0.1 to 1	0.1 to 1
CC(C)(C)c1cc(NC(=O)Nc2ccc(-n3cnc4cc(F)ccc43)cc2)[nH]n1 [Compound 69, 1-(5-tert-butyl-2H-pyrazol-3-yl)-3-[4-(5-fluoro-benzimidazol-1-yl)-phenyl]-urea]	> 1000	> 1000	> 1000	> 1000	> 1000	> 1000	100 to 1000	100 to 1000	0.1 to 1	0.1 to 1
CC(C)(C)c1cc(NC(=O)Nc2ccc(-n3cnc4cc(C(F)(F)F)ccc43)cc2)[nH]n1 [Compound 70, 1-(5-tert-butyl-2H-pyrazol-3-yl)-3-[4-(5-trifluoromethyl-benzimidazol-1-yl)-phenyl]-urea]	> 1000	> 1000	> 1000	> 1000	> 1000	> 1000	> 1000	> 1000	1 to 10	1 to 10
